Data: ChEMBL document CHEMBL1141601, “Exploring the molecular basis of action of the passive antiglucocorticoid 21-hydroxy-6,19-epoxyprogesterone” (J Med Chem, 2008)
Calls of active or inactive are those of the source.

Assays:
[1] = biological target: T1, Glucocorticoid receptor (Homo sapiens) (UniProt P04150); assay: Activity at GR expressed in mouse L929 cells at 10 uM by transactivation assay relative to control; type: cell-based
T1 sequence (whole entry): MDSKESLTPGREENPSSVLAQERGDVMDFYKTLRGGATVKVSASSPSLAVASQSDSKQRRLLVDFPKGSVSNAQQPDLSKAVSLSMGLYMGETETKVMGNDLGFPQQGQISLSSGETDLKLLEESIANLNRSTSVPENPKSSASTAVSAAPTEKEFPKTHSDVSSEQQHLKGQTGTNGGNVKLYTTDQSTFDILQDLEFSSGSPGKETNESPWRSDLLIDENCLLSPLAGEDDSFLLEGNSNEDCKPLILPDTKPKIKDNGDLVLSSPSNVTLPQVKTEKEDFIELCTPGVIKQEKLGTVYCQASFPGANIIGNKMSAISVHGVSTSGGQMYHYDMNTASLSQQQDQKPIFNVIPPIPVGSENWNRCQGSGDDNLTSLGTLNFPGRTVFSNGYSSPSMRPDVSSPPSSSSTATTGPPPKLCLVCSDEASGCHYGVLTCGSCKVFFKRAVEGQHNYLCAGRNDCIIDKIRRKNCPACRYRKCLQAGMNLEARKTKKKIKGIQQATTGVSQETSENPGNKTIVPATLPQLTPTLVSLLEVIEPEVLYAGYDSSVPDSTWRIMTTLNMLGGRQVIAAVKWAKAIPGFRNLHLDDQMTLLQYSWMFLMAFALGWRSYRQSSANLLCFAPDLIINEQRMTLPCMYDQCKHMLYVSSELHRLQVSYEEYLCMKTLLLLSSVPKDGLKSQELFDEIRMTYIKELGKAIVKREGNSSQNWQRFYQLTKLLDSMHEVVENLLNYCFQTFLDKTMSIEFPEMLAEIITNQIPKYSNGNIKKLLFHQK

Liver = assay: Effect on increase in glycogen deposition in rat liver; type: functional, tissue-based
[2] = biological target: T2, Tyrosine aminotransferase (Homo sapiens) (UniProt P17735); assay: Induction of tyrosine aminotransferase
T2 sequence (whole entry): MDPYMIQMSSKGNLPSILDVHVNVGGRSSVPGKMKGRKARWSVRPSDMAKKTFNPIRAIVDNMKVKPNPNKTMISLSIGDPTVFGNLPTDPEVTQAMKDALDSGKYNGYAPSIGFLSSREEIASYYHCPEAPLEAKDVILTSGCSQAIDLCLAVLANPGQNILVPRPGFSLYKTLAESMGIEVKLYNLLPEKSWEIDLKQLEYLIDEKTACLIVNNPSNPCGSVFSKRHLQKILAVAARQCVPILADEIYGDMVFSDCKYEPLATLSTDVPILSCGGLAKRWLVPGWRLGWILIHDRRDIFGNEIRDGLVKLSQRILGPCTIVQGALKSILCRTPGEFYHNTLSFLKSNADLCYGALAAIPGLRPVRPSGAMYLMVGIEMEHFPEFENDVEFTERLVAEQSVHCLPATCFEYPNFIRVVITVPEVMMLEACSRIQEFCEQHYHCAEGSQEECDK

Measured: Activity

C[C@]12CC[C@H]3[C@@H](CC4OC[C@@]35CCC(=O)C=C45)[C@@H]1CC[C@@H]2C(=O)CO
inactive: all assays above
